Experimental data reported in patent US20240238228A1, “COMPOSITIONS AND METHODS FOR TREATING ALLERGIES AND INFLAMMATORY CONDITIONS” (UNIVERSITY OF PITTSBURGH-OF THE COMMONWEALTH SYSTEM OF …, priority 2021, published 2024).

Assays:
[1] = system: passive cutaneous anaphylaxis (PCA); assay: Passive cutaneous anaphylaxis (PCA) in mice; assay type: in vivo, mouse
Protocol: Mouse ears were measured with a micrometer then sensitized with IgE in filter-sterilized PBS (Sigma, clone SPE-7, 20 ng/50 μl/ear) or vehicle control. Twenty-four hours later mice were treated with NKA (10 μg/ear, intradermal) or vehicle (PBS) 3 h prior to Ag (DNP-HSA 100 μg, in 200 μl, intravenous in saline) administration. Data are presented as change in ear thickness between baseline and the indicated time. […] Edema was evaluated histologically and as a function of Evans blue dye extravasation. For histological evaluation, mice were euthanized 2 h after PCA induction. Paraformaldehyde (4.0%) fixed ears were processed for hematoxylin and eosin staining. Pathology was blindly evaluated on an Axiostar plus microscope equipped with epifluorescence and a digital camera (AxioCam; Zeiss). For dye extravasation, Ag was delivered in 1.0% Evans blue dye. Ninety min later mice were euthanized, and ears were excised. Dye was extracted in DriSolv (EMD Millipore) and quantified as absorbance at OD 650 nm. Data are shown as OD650/mg of tissue. Cytokine expression in the skin was investigated 24 h after PCA induction. Mice were euthanized, ears excised, and tissue homogenized in T-PER (ThermoFisher) with Protease Inhibitor Cocktail (Sigma). Protein concentrations were quantified using the BCA Protein Assay (Pierce). The protein profile of skin homogenates was characterized with C-Series Mouse Cytokine Antibody Array C1 (RayBiotech). Densitometry values subtracting the median background from individual spot areas were calculated with ImageStudioLite v5.2.5. The densitometry value from each cytokine spot was divided by the mean densitometry of positive control spots to give relative protein expression. Data were from each experiment were normalized as (Relative Expression [Treated]/Relative expression [Vehicle]). In some experiments, ELISAs were performed on skin homogenates. Neutrophil influx was evaluated as a function of myeloperoxidase (MPO) activity. To detect MPO activity, tissue was homogenized with a Next Advance Bullet Homogenizer in 50 mM KPG4 with 50 mM […]. Homogenate was incubated with ODP (Sigma) with 0.005% H2O2 for 30 minutes. Enzymatic reactions were stopped with 1N HCl and absorbance was read at 450 nm.

[2] = system: connective tissue MCs from the skin, the heart, or peritoneal MCs; details: cited from earlier work
BMMCs = assay: IgE+Ag-activated BMMCs: cytokine release (ELISA) and RNA (RT-PCR); assay type: cell-based, murine
Protocol: Mast cells were differentiated from murine bone marrow as has been described. In brief, marrow was expunged from the femurs and tibias of female mice. Cultures were maintained in complete MC/9 medium containing recombinant murine IL-3 (25 ng/mL, Peprotech) for 4-6 weeks prior to use. Peritoneal MCs (PMCs) were expanded from peritoneal washes with MC/9 medium supplemented with IL-3 (25 ng/mL) and SCF (Peprotech, 10 ng/mL) for 21 days. Purity of BMMCs and PMCs was confirmed to be greater than 95% (FIG. 8A). To initiate signaling via the FcεRI, MCs were loaded with IgE (1.0 μg/ml, clone SPE-7, Sigma) for a minimum of 1 h then crosslinked with dinitrophenyl-human serum albumin (DNP-HSA, 100 ng/mL or as indicated). NKA (either LifeTein (Summerset, NJ) or Phoenix Pharmaceuticals (Burlingham, CA)) stock solutions were prepared in tissue culture grade water (100 μM) and stored at -20° C. for a maximum of 30 days. Glyburide (Cayman Chemical) was prepared in DMSO then diluted in PBS. Calpain activity was detected from cell-free supernatants using the Calpain-Glo Protease Assay (Promega). Supernatants were incubated with substrate for 10 min prior to luminescent detection. In some experiments, glyburide or vehicle (0.1% DMSO) were added to cells 10 min prior to Ag. ELISA kits from eBioscience (IL-13), BioLegend, (TNF and IL-10) or RayBiotech (NKA) and used in accord with the manufacturer's recommendations. […] Total RNA was isolated from either MCs or murine ear tissue 3 h hours after NKA injection. Tissue was homogenized in Navy RINO tubes (Next Advance) in a Bullet Blender Storm (Next Advance). RNA was extracted per standard methods with Trizol (Invitrogen). cDNA was reversed transcribed with the Quantitech Reverse Transcription Kit (Qiagen). PCR products were amplified with Fast SybrGreen (ABI) on a StepOne Plus Cycler ([…]) using the following primers: TNF […] NO: 5), TNF […] NO: 6); IL13 […] NO: 7), IL13 […] NO: 8); IL10 […] NO: 9); IL10 […] NO: 10); Bactin […] NO: 11); Bactin […] NO: 12). Data are presented as 2^-ΔΔCT using f-actin as the housekeeping gene and normalizing to either untreated cells or naïve control mice.

[3] = 24 h after PCA induction, NKA pretreatment
[4] = 24 h after PCA induction, NKA pretreatment, listed as Neurokinin A
[5] = NKA 10 μg/ear intradermal 3 h prior to Ag
[6] = IL-10 KO BMMCs (absence of autocrine IL-10)
[7] = overnight activation with IgE+Ag in the presence of NKA

Molecule: Neurokinin A [NKA]
- IFNγ levels in skin (protein array) [1, 3]: not statistically significant, IFNγ levels increased
- IL-3 in IgE-treated skin (protein array) [1, 3]: significantly reduced
- IL-6 in IgE-treated skin (protein array) [1, 3]: significantly reduced
- IL-13 in IgE-treated skin (protein array) [1, 3]: down-regulated
- MCP1 in IgE-treated skin (protein array) [1, 3]: significantly reduced
- RANTES in IgE-treated skin (protein array) [1, 3]: significantly reduced
- TNF in IgE-treated skin (protein array) [1, 3]: down-regulated
- IL-13 in IgE-treated skin (protein array) [1, 4]: significantly reduced
- TNF in IgE-treated skin (protein array) [1, 4]: significantly reduced
- Evans blue dye extravasation ([1]; Mcpt5Cre^+×IL10/l mice): no effect
- Evans blue dye extravasation ([1]; Mcpt5Cre^+×IL10^WT mice): inhibited
- IL-13 in the skin by ELISA ([1]; Mcpt5 Cre^+×IL10^WT mice, 24 h): significantly downregulated
- TNF in the skin by ELISA ([1]; Mcpt5 Cre^+×IL10^WT mice, 24 h): significantly downregulated
- immune-regulatory capacity (ear measurements) at 2 h and 24 h after PCA induction ([1]; Mcpt5Cre^+×IL10^fl/fl mice): lost
- ear thickness, early (1-2 hours) phase of PCA [1, 5]: reduced ear thickness
- ear thickness, late phase of PCA (24 h) [1, 5]: reduced ear thickness
- Evans blue dye extravasation ([1]; NKA 10 μg/ear intradermal 3 h prior to Ag, 90 min after Ag): reduced Evans blue dye extravasation
- edema in histological sections, early phase of PCA ([1]; NKA 10 μg/ear intradermal 3 h prior to Ag, 2 h after PCA induction): a reduction in edema
- IL-10 protein in total skin homogenates ([1]; NKA pretreated mice): did not increase
- myeloperoxidase activity in skin homogenates, 24 h ([1]; NKA pretreatment): reduced myeloperoxidase activity
- neutrophil influx in histological sections, late phase (24 h) ([1]; NKA pretreatment): reduced neutrophil influx
- IL-13 in the skin ([1]; absence of MC-derived IL-10): increased
- TNF in the skin ([1]; absence of MC-derived IL-10): increased
- PCA, including degranulation-associated edema ([1]; overall statement): fully inhibited
- histamine release [2]: not
- IL10 RNA (BMMCs; 60 min after activation): increased
- IL13 transcription (BMMCs; 60 min after activation): inhibited
- TNF transcription (BMMCs; 60 min after activation): inhibited
- IL-13 release (BMMCs; [6]): did not inhibit
- TNF release (BMMCs; [6]): did not inhibit
- IL-13 release (BMMCs; [7]): inhibited
- TNF release (BMMCs; [7]): inhibited
- IL-10 protein in supernatants (BMMCs; overnight culture with NKA): significant increase

Molecule: COc1ccc(Cl)cc1C(=O)NCCc1ccc(S(=O)(=O)NC(=O)NC2CCCCC2)cc1 [glyburide, reference compound]
- ear thickness at 24 h ([1]; glyburide 2.5 mg/kg i.p. 3 h prior to PCA induction): significantly reduced
- NKA-mediated inhibition with added glyburide (BMMCs; glyburide and NKA (1000 nM), BMMCs or PMCs, 20-24 h): did not further increase
- detectible levels of IL-10 (BMMCs; glyburide, 20-24 h in culture): increased
- levels of IL-13 (BMMCs; glyburide, 20-24 h in culture): decreased
- levels of TNF (BMMCs; glyburide, 20-24 h in culture): decreased
